Patent publication US7973047B2, “Beta-Secretase modulators and methods of use” (Amgen Inc., priority 2010, dated 2011)
Like-named read-outs stand apart in the source and are kept apart here.

System: Aβ40 in conditioned medium of cells stably expressing Amyloid Precursor Protein (APP)
Test: BACE cell-based assay: Aβ40 in conditioned medium by sandwich ELISA
Conditions: unit inferred, read-out: Cell Assay
Experimental: The cell-based assay measures inhibition or reduction of Aβ40 in conditioned medium of test compound treated cells expressing amyloid precursor protein.
Cells stably expressing Amyloid Precursor Protein (APP) were plated at a density of 40K cells/well in 96 well plates (Costar). The cells were cultivated for 24 hours at 37° C. and 5% CO2 in DMEM supplemented with 10% FBS. The test compounds were then added to cells in 10-point dose response concentrations with the starting concentration being either 100 μM or 10 μM. The compounds were diluted from stock solutions in DMSO and the final DMSO concentration of the test compounds on cells was 0.1%. After 24 h of incubation with the test compounds the supernatant conditioned media was collected and the Aβ40 levels were determined using a sandwich ELISA. The ICso of the compound was calculated from the percent of control or percent inhibition of Aβ40 as a function of the concentration of the test compound.
The sandwich ELISA to detect Aβ40 was performed in 96 well microtiter plates, which were pre-treated with goat anti-rabbit IgG (Pierce). The capture and detecting antibody pair that were used to detect Aβ40 from cell supernatants were affinity purified pAb40 (Biosource) and biotinylated 6E10 (Signet Labs Inc.), respectively. The optimal concentration for the pAb40 antibody was 3 μg/ml in Superblock/TBS (Pierce) that was supplemented with 0.05% Tween 20 (Sigma).
Cellular supernatants were incubated with the capture antibody for 3 h at 4° C., followed by 3 wash steps in TBS-tween (0.05%). The detecting antibody incubation was for 2 h at 4° C., again followed by the wash steps as described previously. The final readout of the ELISA is Time-Resolved Fluorescence (counts per minute) using Delfia reagents Streptavidin-Europium and Enhancement solutions (Perkin Elmer) and the Victor 2 multilabel counter (Perkin Elmer).

[1] = cell based assay data of Table 4

IC50 (cell based assay data, Table 4) [nM] | IC50 [1] [nM] | Compound
1.82 | – | CC(=O)N[C@@H](Cc1cncc(F)c1)[C@H](O)CN[C@H]1CC2(CCC2)Oc2ncc(CC(C)(C)C)cc21 [compound 830, N-((1S,2R)-3-(((4′S)-6′-(2,2-dimethylpropyl)-3′,4′-dihydrospiro[cyclobutane-1,2′-pyrano[2,3-b]pyridin]-4′-yl)amino)-1-((5-fluoro-3-pyridinyl)methyl)-2-hydroxypropyl)acetamide]
503 | – | N-((1S,2R)-3-(((4′S)-6′-bromo-3′,4′-dihydrospiro[cyclobutane-1,2′-pyrano[2,3-b]pyridin]-4′-yl)amino)-1-((4-fluorophenyl)methyl)-2-hydroxypropyl)acetamide [compound 843]
– | 64.6 | CC(=O)N[C@@H](Cc1cccc(C#N)c1)[C@H](O)CN[C@H]1CC2(CCC2)Cc2ncc(C)cc21 [compound 542, N-((1S,2R)-1-((3-cyanophenyl)methyl)-2-hydroxy-3-(((5′S)-3′-methyl-5′,8′-dihydro-6′H-spiro[cyclobutane-1,7′-quinolin]-5′-yl)amino)propyl)acetamide]
20.3 | – | CC(=O)N[C@@H](Cc1cc(F)cc(Cl)c1)[C@H](O)CN[C@H]1CC2(CCC2)Oc2cnc(CC(C)(C)C)cc21 [compound 750]
– | 120 | COCC(=O)N[C@@H](Cc1cccc(C#N)c1)[C@H](O)CN[C@H]1CC(C)(C)Oc2ccc(Br)cc21 [compound 527]
5.72 | – | Cc1nccn1CC(=O)N[C@@H](Cc1ccccc1)[C@H](O)CN[C@H]1CC2(CCC2)Oc2ccc(CC(C)(C)C)cc21 [compound 744, N-((1S,2R)-3-(((4S)-6-(2,2-dimethylpropyl)-3,4-dihydrospiro[chromene-2,1′-cyclobutan]-4-yl)amino)-2-hydroxy-1-(phenylmethyl)propyl)-2-(1H-2-methyl-imidazol-1-yl) acetamide]
151 | – | CC(=O)N[C@@H](Cc1ccc(F)cc1)[C@H](O)CN[C@H]1CC2(CCC2)Oc2nc(F)c(CC(C)C)cc21 [compound 854]
– | 13.8 | CC(=O)N[C@@H](Cc1ccccc1)[C@H](O)CN[C@H]1CC(C)(C)Cc2sc(CC(C)(C)C)cc21 [compound 654, N-((1S,2R)-3-(((4S)-2-(2,2-dimethylpropyl)-6,6-dimethyl-4,5,6,7-tetrahydro-1-benzothien-4-yl)amino)-2-hydroxy-1-(phenylmethyl)propyl)acetamide]
25.2 | – | CC(=O)N[C@@H](Cc1cccc(F)c1)[C@H](O)CN[C@H]1CC2(CCC2)Oc2nc(F)c(CC(C)C)cc21 [compound 855]
1050 | – | CC(=O)N[C@@H](Cc1cc(F)cc(F)c1)[C@H](O)CN[C@H]1CC2(CCC2)Oc2ncc(-c3nccs3)cc21 [compound 748]
– | 5.08 | CC(=O)N[C@@H](Cc1ccccc1F)[C@H](O)CN[C@H]1CC2(CCC2)Oc2ncc(CC(C)(C)C)cc21 [compound 703]
– | 3.24 | CC(=O)N[C@@H](Cc1cccc(F)c1)[C@H](O)CN[C@H]1CC2(CCC2)Oc2c1cc(CC(C)(C)C)nc2NC1CCOCC1 [compound 592]
11.3 | – | CCC(=O)N[C@@H](Cc1cc(F)cc(Cl)c1)[C@H](O)CN[C@H]1CC(C)(C)Oc2cnc(CC(C)(C)C)cc21 [compound 797]
78.7 | – | CC(=O)N[C@@H](CC1CCC1)[C@H](O)CN[C@H]1CC2(CCC2)Oc2ncc(CC(C)(C)C)cc21 [compound 809, N-((1S,2R)-1-(cyclobutylmethyl)-3-(((4′S)-6′-(2,2-dimethylpropyl)-3′,4′-dihydrospiro[cyclobutane-1,2′-pyrano[2,3-b]pyridin]-4′-yl)amino)-2-hydroxypropyl)acetamide]
489 | – | CC(=O)N[C@@H](Cc1cccc(F)c1)[C@H](O)CN[C@H]1CC2(CCC2)Oc2cc(F)c(-n3cccn3)cc21 [compound 807]
– | 3.04 | CC(=O)N[C@@H](Cc1ccncc1)[C@H](O)CN[C@H]1CC2(CCC2)Oc2ncc(CC(C)(C)C)cc21 [compound 635, N-((1S,2R)-3-(((4′S)-6′-(2,2-dimethylpropyl)-3′,4′-dihydrospiro[cyclobutane-1,2′-pyrano[2,3-b]pyridin]-4′-yl)amino)-2-hydroxy-1-(4-pyridinylmethyl)propyl)acetamide]
9.28 | – | COc1ccc(C[C@H](NC(C)=O)[C@H](O)CN[C@H]2CC3(CCC3)Oc3ncc(CC(C)(C)C)cc32)cc1OC [compound 832]
58.5 | – | CC(=O)N[C@@H](Cc1cc(F)cc(F)c1)[C@H](O)CN[C@H]1CC2(CCC2)Oc2ccc(N[C@@H]3CCOC3)cc21 [compound 790]
– | 103 | COc1nc(CC(C)(C)C)cc2c1OC1(CCC1)C[C@@H]2NC[C@@H](O)[C@H](Cc1ccc(F)cc1)NC(C)=O [compound 613]
8.68 | – | CC(=O)N[C@@H](Cc1cccc(F)c1F)[C@H](O)CN[C@H]1CC2(CCC2)Oc2ncc(CC(C)C)cc21 [compound 850]
– | 8.48 | CC(=O)N[C@@H](Cc1ccc(F)cc1)[C@H](O)CN[C@H]1CC2(CCC2)Oc2c1cc(CC(C)(C)C)nc2NC1CCOCC1 [compound 587]

IC50 (cell based assay data, Table 4) [nM] | IC50 [1] [nM] | Compound
– | 95.8 | CCC(CC)Cc1cnc2c(c1)[C@@H](NC[C@@H](O)[C@H](Cc1cc(F)cc(F)c1)NC(C)=O)CC1(CCC1)O2 [compound 691]
– | 6.93 | CC(=O)N[C@@H](Cc1cccc(F)c1)[C@H](O)CN[C@H]1CC2(CCCC2)Oc2ncc(CC(C)(C)C)cc21 [compound 549]
– | 8.61 | CC(=O)N[C@@H](Cc1cccc(F)c1F)[C@H](O)CN[C@H]1CC2(CCC2)Oc2ncc([C@H](F)C(C)(C)C)cc21 [compound 677]
– | 30.6 | CC(=O)N[C@@H](Cc1ccccc1)[C@H](O)CN[C@H]1CC(C)(C)Nc2ccc(CC(C)(C)C)cc21 [compound 692]
– | 9.28 | CC(=O)N[C@@H](Cc1cc(F)c(F)cc1F)[C@H](O)CN[C@H]1CC2(CCC2)Oc2ncc(CC(C)(C)C)cc21 [compound 685]
– | 29 | CCc1cnc2c(c1)[C@@H](NC[C@@H](O)[C@H](Cc1cccc(F)c1)NC(C)=O)CC1(CCC1)O2 [compound 566]
35.6 | – | CC(=O)N[C@@H](Cc1c(F)ccc(F)c1F)[C@H](O)CN[C@H]1CC2(CCC2)Oc2ncc(CC(C)(C)C)cc21 [compound 870]
167 | – | CC(=O)N[C@@H](Cc1cncc(F)c1)[C@@H](O)CN[C@H]1CC2(CCC2)Oc2ncc(CC(C)(C)C)cc21 [compound 831, N-((1S,2S)-3-(((4′S)-6′-(2,2-dimethylpropyl)-3′,4′-dihydrospiro[cyclobutane-1,2′-pyrano[2,3-b]pyridin]-4′-yl)amino)-1-((5-fluoro-3-pyridinyl)methyl)-2-hydroxypropyl)acetamide]
452 | – | CC(=O)N[C@@H](Cc1ccc(Cl)cc1)[C@H](O)CN[C@H]1CC2(CCC2)Oc2ncc(C(F)C(C)C(F)(F)F)cc21 (some centres unmarked) [compound 860]
– | 1080 | CC(=O)N[C@@H](Cc1ccc(F)cc1)[C@H](O)CN[C@H]1CC2(CCC2)Oc2ncc([C@@H](F)C(C)(C)C)cc21 [compound 674]
– | 24.2 | CC(=O)N[C@@H](Cc1cc(F)cc(F)c1)[C@H](O)CN[C@H]1CC2(CCC2)Oc2c1cc(CC(C)(C)C)nc2OC(C)C [compound 612, N-((1S,2R)-1-((3,5-difluorophenyl)methyl)-3-(((4′S)-6′-(2,2-dimethylpropyl)-8′-((1-methylethyl)oxy)-3′,4′-dihydrospiro[cyclobutane-1,2′-pyrano[2,3-c]pyridin]-4′-yl)amino)-2-hydroxypropyl)acetamide]
– | 5.29 | CCNc1nc(CC(C)(C)C)cc2c1OC1(CCC1)C[C@@H]2NC[C@@H](O)[C@H](Cc1ccc(F)cc1)NC(C)=O [compound 584]
11.4 | – | CC(=O)N[C@@H](Cc1ccc(F)cc1)[C@H](O)CN[C@H]1CC2(CCC2)Oc2ncc(CC(C)C)cc21 [compound 845]
3.24 | – | CC(=O)N[C@@H](Cc1ccc(F)c(F)c1)[C@H](O)CN[C@H]1CC2(CCC2)Oc2ncc(CC(C)C)cc21 [compound 851]
– | 2.83 | CC(=O)N[C@@H](Cc1cc(F)cc(F)c1)[C@H](O)CN[C@H]1CC2(CCCC2)Oc2ncc(CC(C)(C)C)cc21 [compound 548]
– | ≥ 10000 | CC(=O)N[C@@H](Cc1ccc(Cl)cc1)[C@H](O)CN[C@H]1C[C@@]2(CC[C@H]2C)Oc2ncc(CC(C)(C)C)cc21 [compound 622]
– | 127 | CCc1cc2c(s1)CC1(CCC1)C[C@@H]2NC[C@@H](O)[C@H](Cc1ccccc1)NC(C)=O [compound 653, N-((1S,2R)-3-(((4S)-2-ethyl-4,7-dihydro-5H-spiro[1-benzothiophene-6,1′-cyclobutan]-4-yl)amino)-2-hydroxy-1-(phenylmethyl)propyl)acetamide]
13.8 | – | CC(=O)N[C@@H](Cc1ccccc1)[C@H](O)CN[C@H]1CC2(CCC2)Oc2c1cc(CC(C)(C)C)nc2Cl [compound 753]
27.7 | – | CC(=O)N[C@@H](Cc1ccc2c(c1)OCO2)[C@H](O)CN[C@H]1CC2(CCC2)Oc2ncc(CC(C)(C)F)cc21 [compound 840]
236 | – | CC(=O)N[C@@H](Cc1ccc(F)cc1)[C@H](O)CN[C@H]1CC2(CCC2)Oc2ncc(CC(C)(C)CO)cc21 [compound 878]
